Patent publication US8697639B2, “Compositions and methods for treating bacteria” (Biosynexus Incorporated, priority 2005, dated 2014)
Bridge positions count the residues as written; N and C are the ends. Square brackets hold non-standard residues; d marks the D form. Peptide text beside a SMILES is read from it. * marks the point of attachment. Ileψ(thiazoline)Cys = CC[C@H](C)[C@H](N)C1=N[C@H](C(=O)*)CS1; dOrn = NCCC[C@@H](N)C(=O)O

Key:
S. aureus [1] = assay: Mouse skin infection model: S. aureus infection in abraded mouse skin treated with topical ointment; type: in vivo; settings: for synergy with mupirocin in the skin infection model (in words): combination with mupirocin; for synergy with mupirocin in the skin infection model (in words) / synergy or additive effect with nisin in the skin infection model (in words): superficial wound model; for synergy or additive effect with nisin in the skin infection model (in words): combination with nisin
Procedure: (§1) Mouse Skin Infection Model: An overnight culture of S. aureus grown in tryptic soy broth (SA8; range from 1 to 6×10^9 CFUs/mL) was centrifuged at 4000×g for 10 minutes and resuspended in an equal volume of phosphate buffered saline (PBS). The bacteria were diluted to a percent transmittance of 40 (Spectronic 20D+) and diluted a subsequent 1:1000 in PBS for a final bacteria concentration of about 3×10^5. SKH1 (hrhr) hairless mice (Charles River) were sedated with 0.2 mL of ketamine (80 mg/kg) and xylazine (32 mg/kg) delivered intraperitoneally. The upper back of the mice were scrubbed with a 70% alcohol wipe and allowed to dry. Fine abrasions were made on the backs of the mice between the shoulders using 150 grit sandpaper. Bacteria were swabbed over the abraded area with a sterile, cotton-tipped applicator until the area was saturated with the solution.
Topical Ointment: 74 g of PEG 400 and 24 g of PEG 3350 were added to a 250 mL glass beaker and heated until all of the PEG 3350 was melted. […] Lysostaphin was first dissolved to a concentration of about 150 mg/mL in DI water before mixing into the ointment to give a final concentration of 2% (w/w).
Treatment of Infected Skin with Topical Ointment: Treatments aimed to eradicate S. aureus skin infections in the mouse model were started on the morning after infection (Day 1). […] The mice were sacrificed by CO2 asphyxiation on the morning of Day 3 and a 0.5-cm^2 patch of skin around the infected area was excised. The skin sample was disected and placed into a test tube containing 1 mL of 5 mg/mL proteinase K, 20 mg/mL esterase, and 20 mg/mL activated charcoal in PBS to neutralize the activity of the antibacterial agents. Bacteria were dislodged from the skin sample by sonication: 2 minute treatments per sample with alternating 5 seconds at 3 W and 5 seconds at 0 W in a Virsonic 600 with microtip (VirTis). After mixing by vortex, 50 μL of each sample was streaked onto blood agar plates, incubated at 37° C. overnight, and the colonies were counted and compared to untreated controls.
For the following data, except where noted in FIG. 2, all antibiotic formulations were in a common polyethylene glycol (PEG) ointment (PEG 400 plus PEG 3350).

S. aureus [2] = assay: Suture skin infection model (deep tissue infection) in mouse; type: in vivo; settings: deep cut, FIG. 13
Procedure: It was determined whether nisin and mupirocin, either alone or in combination with each other, would be able to treat S. aureus in a deep tissue infection model. A suture skin infection model was generated in which a deep cut (e.g., one needing sutures to close) was made in a mouse and S. aureus introduced into the incision. […] Thus, a combination of nisin and mupirocin can be used to treat a deep tissue infection as well as a […] infection.

P. aeruginosa [3] = settings: previously shown; cited from earlier work
[4] = tested on: S. aureus strain resistant to mupirocin; assay: Mupirocin-resistant S. aureus infection in abraded mouse skin; type: in vivo; settings: FIG. 3
Procedure: as §1
Topical Ointment: 74 g of PEG 400 and 24 g of PEG 3350 were added to a 250 mL glass beaker and heated until all of the PEG 3350 was melted. […]
Treatment of Infected Skin with Topical Ointment: Treatments aimed to eradicate S. aureus skin infections in the mouse model were started on the morning after infection (Day 1). […] After mixing by vortex, 50 μL of each sample was streaked onto blood agar plates, incubated at 37° C. overnight, and the colonies were counted and compared to untreated controls.

S. aureus [5] = assay: In vitro MIC of nisin alone or in combination (log reduction of viable S. aureus); type: cell-based; settings: FIG. 11
Procedure: In order to determine if nisin could function in a synergistic way with other antimicrobials to treat (e.g., kill and/or inhibit growth of) bacteria in vitro, the minimum inhibitory concentration (MIC) of nisin alone or nisin in combination with either mupirocin, neomycin or gentamicin were tested. The MIC was determined by calculating the log reduction of viable S. aureus following incubation with the amounts of nisin and other antimicrobials as indicated in FIG. 11.

[6] = tested on: Staphylococcus aureus ATCC #6538; assay: Pig partial thickness wounds inoculated with Staphylococcus aureus; type: in vivo
P. aeruginosa [7] = assay: P. aeruginosa infection in abraded mouse skin; type: in vivo; settings: FIG. 4

Row | Compound | synergy with mupirocin in the skin infection model (in words) (S. aureus [1]) | synergy with nisin in vitro (in words) (S. aureus [5]) | synergy or additive effect with nisin in the skin infection model (in words) (S. aureus [1]) | other results
1 | CC[C@H](C)[C@H](N)C1=N[C@H](C(=O)N[C@@H](CC(C)C)C(=O)N[C@H](CCC(=O)O)C(=O)N[C@H](C(=O)N[C@H]2CCCCNC(=O)[C@H](CC(N)=O)NC(=O)[C@@H](CC(=O)O)NC(=O)[C@H](Cc3cnc[nH]3)NC(=O)[C@@H](Cc3ccccc3)NC(=O)[C@H]([C@@H](C)CC)NC(=O)[C@@H](CCCN)NC2=O)[C@@H](C)CC)CS1 [bacitracin] ({Ileψ(thiazoline)Cys}-L[dE]IK[dOrn]I[dF]H[dD]N; lactam 4-C) | did not synergize |  |  | 
2 | C/C(=C\C(=O)OCCCCCCCCC(=O)O)C[C@@H]1OC[C@H](C[C@@H]2O[C@H]2[C@@H](C)[C@H](C)O)[C@@H](O)[C@H]1O [mupirocin] |  | does not synergize |  | efficacy in treating S. aureus in suture infection model (in words) (S. aureus [2]): very little efficacy; activity against P. aeruginosa (in words) (P. aeruginosa [3]): poor activity; activity against mupirocin-resistant S. aureus (in words) [4]: minimal activity; Staphylococcus aureus recovered from wounds ([6]; Day 7 post treatment, FIG. 8): 1.63 Log cfu/ml; Staphylococcus aureus recovered from wounds ([6]; two days after initial treatment, treated twice per day, FIG. 6): 4.96±0.8 Log CFU/ml; activity relative to nisin formulation (in words) (P. aeruginosa [7]): does not add any additional activity; decrease of infectious CFUs (S. aureus [1]; abraded mouse skin, PEG ointment 3 times a day on Days 1 and 2, FIG. 1, for combinations: residual infections): 3 logs
3 | gallidermin | did synergize |  | did not synergize | 
4 | gentamicin |  | does not synergize | did synergize | 
5 | neomycin |  | does not synergize | did not synergize | 
